From US20090264433A1, “Compounds, Compositions and Methods Comprising Triazine Derivatives” (Institute for OneWorld Health, priority 2008, published 2009)

The molecules below were run against T1, CFTR channel in human colonic T84 cells (Homo sapiens, UniProt P13569) (assay: T84 assay (FLIPR membrane potential dye, forskolin/IBMX-stimulated CFTR)). Conditions: average of at least 2 runs unless annotated n = 1.
T1 construct: results in the phosphorylation and opening of CFTR anion channels; host or cells: human colonic T84 cells
T1 sequence (P13569 whole entry): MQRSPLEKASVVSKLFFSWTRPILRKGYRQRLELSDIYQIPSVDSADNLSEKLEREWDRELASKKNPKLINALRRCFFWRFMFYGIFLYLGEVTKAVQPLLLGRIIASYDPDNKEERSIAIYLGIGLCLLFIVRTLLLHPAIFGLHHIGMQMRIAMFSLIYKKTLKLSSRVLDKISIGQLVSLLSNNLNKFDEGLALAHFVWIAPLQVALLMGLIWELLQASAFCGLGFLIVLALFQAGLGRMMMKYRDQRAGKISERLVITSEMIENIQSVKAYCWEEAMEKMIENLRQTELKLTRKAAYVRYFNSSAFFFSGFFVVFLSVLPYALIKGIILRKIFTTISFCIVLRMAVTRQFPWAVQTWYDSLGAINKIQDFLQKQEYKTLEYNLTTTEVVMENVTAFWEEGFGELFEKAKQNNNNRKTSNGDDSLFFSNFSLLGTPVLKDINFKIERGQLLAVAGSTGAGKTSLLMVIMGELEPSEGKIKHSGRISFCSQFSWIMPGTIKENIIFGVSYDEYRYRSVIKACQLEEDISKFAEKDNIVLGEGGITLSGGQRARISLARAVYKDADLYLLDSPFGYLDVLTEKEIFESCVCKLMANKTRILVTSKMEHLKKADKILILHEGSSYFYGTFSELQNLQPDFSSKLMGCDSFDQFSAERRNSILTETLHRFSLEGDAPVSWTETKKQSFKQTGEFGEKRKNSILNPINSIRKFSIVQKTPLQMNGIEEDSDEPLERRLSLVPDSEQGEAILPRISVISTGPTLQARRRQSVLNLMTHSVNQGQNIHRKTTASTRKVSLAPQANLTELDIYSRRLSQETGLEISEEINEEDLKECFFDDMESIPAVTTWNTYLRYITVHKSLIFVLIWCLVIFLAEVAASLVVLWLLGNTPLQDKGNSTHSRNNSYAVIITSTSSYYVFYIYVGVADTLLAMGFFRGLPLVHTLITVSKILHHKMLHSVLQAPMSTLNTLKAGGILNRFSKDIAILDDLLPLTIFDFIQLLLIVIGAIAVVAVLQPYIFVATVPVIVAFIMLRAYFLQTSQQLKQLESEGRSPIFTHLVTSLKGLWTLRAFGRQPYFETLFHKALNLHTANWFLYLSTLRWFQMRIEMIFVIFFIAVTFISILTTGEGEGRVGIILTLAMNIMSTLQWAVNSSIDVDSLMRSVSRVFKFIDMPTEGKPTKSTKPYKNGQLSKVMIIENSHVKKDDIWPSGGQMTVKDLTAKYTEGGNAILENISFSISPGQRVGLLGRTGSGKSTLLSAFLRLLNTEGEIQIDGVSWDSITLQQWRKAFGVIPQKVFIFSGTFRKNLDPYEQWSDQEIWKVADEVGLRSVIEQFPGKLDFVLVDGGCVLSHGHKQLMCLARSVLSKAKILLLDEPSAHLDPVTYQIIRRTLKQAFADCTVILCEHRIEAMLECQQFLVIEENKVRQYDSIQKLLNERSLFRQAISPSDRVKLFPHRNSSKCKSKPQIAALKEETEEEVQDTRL
Type: cell-based
Protocol: (§1) For example, Human colonic T84 cells can be acquired from the European Collection of Cell Cultures (ECACC) and grown in standard culture conditions as described by the supplier. On the day before assay 25,000 T84 cells per well are plated into standard black walled, clear bottom 384-well assay plates in standard growth medium consisting of DMEM:F12 with 10% FBS and incubated overnight. On the day of the assay the plates are washed using a standard assay buffer (HBSS with 10 mM Hepes) and incubated for 15 minutes in serum free cell culture medium before the addition of a commercially available membrane potential sensitive fluorescent dye (FLIPR Red membrane potential dye, Molecular Devices Corporation). T84 cells are incubated with the FLIPR Red membrane potential dye for 45 minutes in the presence and absence of test compound before being transferred to a commercially available fluorescence imaging plate reader (FLIPR384, Molecular Devices Corporation). Fluorescence levels are monitored continuously every second for 150 seconds; after an initial 10 second baseline, CFTR channel activity is stimulated through the addition of 10 μM forskolin in the presence of 100 μM of the phosphodiesterase inhibitor iso-butyl-methylxanthine (IBMX). Addition of the forskolin leads to the activation of intracellular adenylyl cylase 1, elevating cAMP levels and results in the phosphorylation and opening of CFTR anion channels. CFTR channel opening causes chloride ion efflux and subsequent depolarization of the cells, which is measured by an increase in fluorescence. CFTR inhibitor compounds prevent cell depolarization and the associated increase in fluorescence.
as §1, with “Human colonic” for “For example, Human colonic”, “T84 cells are acquired from” for “T84 cells can be acquired from”, “(ECACC) and are grown in” for “(ECACC) and grown in”

`Cc1ccc(OCc2ncc(-c3cc(Cl)c(O)c(Cl)c3)nn2)c2c1CCC2` [Compound 41, 2,6-dichloro-4-(3-((7-methyl-2,3-dihydro-1H-inden-4-yloxy)methyl)-1,2,4-triazin-6-yl)phenol] and `Cc1ccc(OCc2ncc(-c3cc(Br)c(O)c(Br)c3)nn2)c2c1CCC2` [Compound 45, 2,6-dibromo-4-(3-((7-methyl-2,3-dihydro-1H-inden-4-yloxy)methyl)-1,2,4-triazin-6-yl)phenol] are within 1.5-fold of each other in IC50: 10.6 µM for the first, 14.1 µM for the second.

`Oc1c(Br)cc(-c2cnc(COc3ccc(Cl)cc3Cl)nn2)cc1Br` [Compound 42, 2,6-dibromo-4-(3-((2,4-dichlorophenoxy)methyl)-1,2,4-triazin-6-yl)phenol] and `Oc1c(Br)cc(-c2cnc(COc3cc(Cl)ccc3Cl)nn2)cc1Br` [Compound 43, 2,6-dibromo-4-(3-((2,5-dichlorophenoxy)methyl)-1,2,4-triazin-6-yl)phenol] are within 1.5-fold of each other in IC50: 11 µM for the first, 11.1 µM for the second.

Going from `C=CCc1ccccc1OCc1ncc(-c2cc(Br)c(O)c(Br)c2)nn1` [Compound 44, 4-(3-((2-allylphenoxy)methyl)-1,2,4-triazin-6-yl)-2,6-dibromophenol] to `Oc1c(Br)cc(-c2cnc(COc3ccc(F)cc3F)nn2)cc1Br` [Compound 56, 2,6-dibromo-4-(3-((2,4-difluorophenoxy)methyl)-1,2,4-triazin-6-yl)phenol], the IC50 rises from 12.7 µM to 25.3 µM (2-fold).

Compared with `Cc1cc(Br)c(OCc2ncc(-c3cc(Br)c(O)c(Br)c3)nn2)c2c1CCC2` [Compound 46, 2,6-dibromo-4-(3-((5-bromo-7-methyl-2,3-dihydro-1H-inden-4-yloxy)methyl)-1,2,4-triazin-6-yl)phenol], `Cc1cc(OCc2ncc(-c3cc(Br)c(O)c(Br)c3)nn2)cc(C)c1Br` [Compound 54, 2,6-dibromo-4-(3-((4-bromo-3,5-dimethylphenoxy)methyl)-1,2,4-triazin-6-yl)phenol] is 1.5-fold higher in IC50: 14.3 µM for the first, 22 µM for the second.

`Cc1cc(OCc2ncc(-c3cc(Br)c(O)c(Br)c3)nn2)cc(C)c1Cl` [Compound 47, 2,6-dibromo-4-(3-((4-chloro-3,5-dimethylphenoxy)methyl)-1,2,4-triazin-6-yl)phenol] and `Cc1ccc(C)c(OCc2ncc(-c3cc(Br)c(O)c(Br)c3)nn2)c1` [Compound 52, 2,6-dibromo-4-(3-((2,5-dimethylphenoxy)methyl)-1,2,4-triazin-6-yl)phenol] are within 1.5-fold of each other in IC50: 14.7 µM for the first, 19.8 µM for the second.

`Oc1c(Br)cc(-c2cnc(COc3ccc4c(c3)CCC4)nn2)cc1Br` [Compound 48, 2,6-dibromo-4-(3-((2,3-dihydro-1H-inden-5-yloxy)methyl)-1,2,4-triazin-6-yl)phenol] and `Oc1c(Br)cc(-c2cnc(COc3ccc(Br)cc3)nn2)cc1Br` [Compound 49, 2,6-dibromo-4-(3-((4-bromophenoxy)methyl)-1,2,4-triazin-6-yl)phenol] are within 1.5-fold of each other in IC50: 14.8 µM for the first, 15.3 µM for the second.

Going from `CC1(C)Cc2cccc(OCc3ncc(-c4cc(Cl)c(O)c(Cl)c4)nn3)c2O1` [Compound 50, 2,6-dichloro-4-(3-((2,2-dimethyl-2,3-dihydrobenzofuran-7-yloxy)methyl)-1,2,4-triazin-6-yl)phenol] to `Cc1ccc(C(C)C)c(OCc2ncc(-c3cc(Br)c(O)c(Br)c3)nn2)c1` [Compound 57, 2,6-dibromo-4-(3-((2-isopropyl-5-methylphenoxy)methyl)-1,2,4-triazin-6-yl)phenol], the IC50 rises from 15.4 µM to 26.8 µM (1.7-fold). The first is the more potent here.

`Oc1c(Br)cc(-c2cnc(COc3ccc(C4SCCS4)cc3)nn2)cc1Br` [Compound 51, 4-(3-((4-(1,3-dithiolan-2-yl)phenoxy)methyl)-1,2,4-triazin-6-yl)-2,6-dibromophenol] and `Oc1c(Br)cc(-c2cnc(COc3ccc(-c4ccccc4)cc3)nn2)cc1Br` [Compound 55, 4-(3-((biphenyl-4-yloxy)methyl)-1,2,4-triazin-6-yl)-2,6-dibromophenol] are within 1.5-fold of each other in IC50: 18.8 µM for the first, 22.9 µM for the second.

`Cc1ccc(C(C)C)cc1OCc1ncc(-c2cc(Br)c(O)c(Br)c2)nn1` [Compound 53, 2,6-dibromo-4-(3-((5-isopropyl-2-methylphenoxy)methyl)-1,2,4-triazin-6-yl)phenol] and `Oc1c(Br)cc(-c2cnc(OCc3ccncc3)nn2)cc1Br` [Compound 106, 2,6-dibromo-4-(3-(pyridin-4-ylmethoxy)-1,2,4-triazin-6-yl)phenol] are within 1.5-fold of each other in IC50: 20.1 µM for the first, 18.1 µM for the second.

First: Oc1c(Br)cc(-c2cnc(OCCc3ccc(Cl)cc3)nn2)cc1Br [Compound 90, 2,6-dibromo-4-(3-(4-chlorophenethoxy)-1,2,4-triazin-6-yl)phenol]
Second: Oc1c(Br)cc(-c2cnc(OCCCc3ccc(Cl)cc3)nn2)cc1Br [Compound 95, 2,6-dibromo-4-(3-(3-(4-chlorophenyl)propoxy)-1,2,4-triazin-6-yl)phenol]
The IC50 of the first is 3.6-fold lower: 0.17 µM for the first, 0.61 µM for the second. The first is the more potent here.

Going from `Oc1c(Br)cc(-c2cnc(OC3c4ccccc4Oc4ccccc43)nn2)cc1Br` [Compound 91, 4-(3-(9H-xanthen-9-yloxy)-1,2,4-triazin-6-yl)-2,6-dibromophenol] to `Oc1c(Br)cc(-c2cnc(OCCc3ccccc3)nn2)cc1Br` [Compound 96, 2,6-dibromo-4-(3-phenethoxy-1,2,4-triazin-6-yl)phenol], the IC50 falls from 4.09 µM to 0.47 µM (8.7-fold). The second is the more potent here.

Going from `CC(C)(C)OC(=O)N1CCN(Cc2cc(Cl)ccc2OCc2ncc(-c3cc(Br)c(O)c(Br)c3)nn2)CC1` [Compound 92, tert-butyl 4-(5-chloro-2-((6-(3,5-dibromo-4-hydroxyphenyl)-1,2,4-triazin-3-yl)methoxy)benzyl)piperazine-1-carboxylate] to `Oc1c(Br)cc(-c2cnc(OCc3ccc(CN4CCOCC4)cc3)nn2)cc1Br` [Compound 110, 2,6-dibromo-4-(3-(4-(morpholinomethyl)benzyloxy)-1,2,4-triazin-6-yl)phenol], the IC50 rises from 4.56 µM to 12.9 µM (2.8-fold).

Going from `CC(C)(C)c1ccc(CCOc2ncc(-c3cc(Br)c(O)c(Br)c3)nn2)cc1` [Compound 93, 2,6-dibromo-4-(3-(4-tert-butylphenethoxy)-1,2,4-triazin-6-yl)phenol] to `Cc1ccc(CCOc2ncc(-c3cc(Br)c(O)c(Br)c3)nn2)cc1` [Compound 98, 2,6-dibromo-4-(3-(4-methylphenethoxy)-1,2,4-triazin-6-yl)phenol], the IC50 falls from 0.64 µM to 0.3 µM (2.1-fold).

`Oc1c(Br)cc(-c2cnc(OCCc3ccccc3Cl)nn2)cc1Br` [Compound 94, 2,6-dibromo-4-(3-(2-chlorophenethoxy)-1,2,4-triazin-6-yl)phenol] and `Oc1c(Br)cc(-c2cnc(OCCc3ccc(Cl)c(Cl)c3)nn2)cc1Br` [Compound 99, 2,6-dibromo-4-(3-(3,4-dichlorophenethoxy)-1,2,4-triazin-6-yl)phenol] are within 1.5-fold of each other in IC50: 0.34 µM for the first, 0.26 µM for the second.

Compared with `COc1ccc(CCOc2ncc(-c3cc(Br)c(O)c(Br)c3)nn2)cc1` [Compound 97, 2,6-dibromo-4-(3-(4-methoxyphenethoxy)-1,2,4-triazin-6-yl)phenol], `Oc1c(Br)cc(-c2cnc(OCc3ccccn3)nn2)cc1Br` [Compound 104, 2,6-dibromo-4-(3-(pyridin-2-ylmethoxy)-1,2,4-triazin-6-yl)phenol] is 36-fold higher in IC50: 0.45 µM for the first, 16 µM for the second.

Compared with `Oc1c(Br)cc(-c2cnc(C(O)(c3ccc(Cl)cc3)c3ccc(Cl)cc3)nn2)cc1Br` [Compound 100, 4-(3-(bis(4-chlorophenyl)(hydroxy)methyl)-1,2,4-triazin-6-yl)-2,6-dibromophenol], `Oc1c(Br)cc(-c2cnc(OC(c3cccc(C(F)(F)F)c3)c3cccc(C(F)(F)F)c3)nn2)cc1Br` [Compound 109, 4-(3-(bis(3-(trifluoromethyl)phenyl)methoxy)-1,2,4-triazin-6-yl)-2,6-dibromophenol] is 1.6-fold higher in IC50: 7.77 µM for the first, 12.2 µM for the second.

Compared with `Oc1c(Br)cc(-c2cnc(OCc3cc(Br)cs3)nn2)cc1Br` [Compound 107, 2,6-dibromo-4-(3-((4-bromothiophen-2-yl)methoxy)-1,2,4-triazin-6-yl)phenol], `Oc1c(Br)cc(-c2cnc(OC3CCc4ccccc4C3)nn2)cc1Br` (centres unmarked) [Compound 108, 2,6-dibromo-4-(3-(1,2,3,4-tetrahydronaphthalen-2-yloxy)-1,2,4-triazin-6-yl)phenol] is 2.7-fold higher in IC50: 0.44 µM for the first, 1.18 µM for the second.

Molecule `Oc1c(Cl)cc(-c2cnc(OC(Cc3ccccc3)c3ccccc3)nn2)cc1Cl` (centres unmarked) [Compound 111, 2,6-dichloro-4-(3-(1,2-diphenylethoxy)-1,2,4-triazin-6-yl)phenol] has an IC50 of 1.89 µM.
